Reference: patent US20240050406A1, “COMPOSITION COMPRISING OXIRACETAM FOR PREVENTING OR TREATING MUSCULAR DISEASE” (KSB TUGEN INC., priority 2021, published 2024)

Legend:
[1] = tested on: C2C12 myotubes; experiment: Myotube diameter in doxorubicin-induced cachexia cell model (Experimental Example 8); type: cell-based, mouse; conditions: doxorubicin 500 nM 48 h with or without oxiracetam 0.01, 0.1, 1, 10 and 30 μM; relative to control
Procedure: A mouse-derived C2C12 cell line was provided from the American Type Culture Collection (ATCC, CRL-1772; Manassas, VA, USA) and cultured at 37° C. in 5% CO2. In the proliferation phase of the cells before differentiation, high concentration glucose Dulbecco's modified Eagle's medium (DMEM) containing 1% penicillin/streptomycin and 10% fetal bovine serum (FBS) medium were used, and in the differentiation induction, the FBS medium was replaced with a 2% horse serum (HS)-containing medium. The C2C12 myoblasts were seeded into a 96 well culture plate and a 6 well culture plate at 2×10^5/well and 5×10^3/well, respectively, and cultured at 37° C. in a CO2 incubator. […]
Two days after anticancer agent and oxiracetam treatment, the anticancer agent-treated group (Doxorubicin), the oxiracetam-treated groups (Oxiracetam 0.01 μM, 0.1 μM, 1 μM, 10 μM and 30 μM), and the control (control) were photographed using an optical microscope at a room temperature, and the diameter (Diameter, %) of a myotube in each group was measured and compared.
Statistical processing was performed using GraphPad Prism (GraphPad Software Inc., San Diego, CA, USA). The results of each repeated experiment were expressed as mean±standard error of mean, and analyzed using the analysis of variance (Tukey's test), and statistical significance was acknowledged when the P-value was 0.05 or less.

[2] = tested on: DMD animal model; experiment: Duchenne muscular dystrophy animal model (Experimental Example 6); type: in vivo, mice (C57BL/10 ScSn-Dmdmdx/J); conditions: mdx mice, oxiracetam 30 mg/kg oral daily 35 days
Procedure: As experimental animals, 23-week-old male mice (C57BL/10 ScSn-Dmdmdx/J) were purchased from the Jackson Laboratory (USA) to conduct experiments. All animals were maintained under conditions of a temperature of 23±2° C. and a relative humidity of 55±10%. Before the initiation of the experiment, a total of 20 mice were randomly divided into groups of 10 animals. After adaptation for 1 week, 30 mg/kg of oxiracetam of Example 1 was orally administered daily for 35 days (drug-administered group, oxiracetam). Here, for the control (vehicle), instead of a sample, normal saline was orally administered.
For statistical analysis of the experiment, significant differences in mean values between groups were confirmed using a paired t-test, and p<0.05 is denoted as *, p<0.01 is denoted as **, p<0.001 is denoted as ***, and no significant difference is denoted as N.S. An error bar represents S.E.M.
Total lean body mass, body fat content (fat, %), the lean body mass of the gastrocnemius muscle (GS), and the lean body mass of the tibialis anterior (TA) were analyzed by dual energy X-ray absorptiometry (DEXA) every 7 days from the first day (day 0) of oral administration. Specifically, animal models of each group were anesthetized using 3% isoflurane, fixed to a photographing bed and then photographed. During photographing, the respiratory rates and body temperatures of the animal models were measured with an animal monitoring system (SA Instruments, USA).
The whole body of the animal model was photographed through dual energy X-ray absorptiometry (DEXA) using iNSiGHT VET DXA (Osteosys, KR), and the total lean body mass and the body fat content (fat, %) were analyzed. In addition, from the photographed images, the two-dimensional images of the gastrocnemius muscle (GS) and the tibialis anterior (TA) were assigned to the region of interest (ROI) using a program, and the lean body mass of each of the gastrocnemius muscle (GS) and the tibialis anterior (TA) was measured and calculated. Since the DEXA image can be used to measure and analyze the lean body mass, fat, and bone density of a mouse, it is possible to measure and calculate not only detailed lean body mass but also total lean body mass and body fat content (fat, %).
Grip strength was measured every 2 days from the first day (day 0) of oral administration. The measurement of the grip strength was performed using a grip strength meter for mice (BIOSEB), a mouse was placed on a wire mesh attached to a gauge capable of monitoring the strength, and the tail of the mouse was pulled downward to measure a force of grabbing the wire mesh. The average value was recorded by repeating measurement five consecutive times.
Body weights were measured every day from the first day (day 0) of oral administration.

[3] = day 35, compared to control (vehicle)

**Q.** What does the source list for `NC(=O)CN1CC(O)CC1=O` (racemic) [oxiracetam, (RS)-2-(4-hydroxy-2-oxopyrrolidin-1-yl)acetamide]?
**A.** diameter of myotube [1]: significantly recovered and greatly increased to the control (normal group) level; change in body weight [2]: does not exhibit a significant effect; change in grip strength [2]: significantly increased; pseudohypertrophy (characteristic symptom of DMD) [2]: reduced; lean body mass of the gastrocnemius muscle (GS) ([2]; compared to control): significantly increased; lean body mass of the tibialis anterior (TA) ([2]; compared to control): significantly increased; body fat mass (fat, %) [2, 3]: significantly reduced; total lean body mass [2, 3]: significantly increased
